Patent US10695364B2, “Anti-hemorrhaging compositions” (Ariel-University Research and Development Company Ltd., priority 2015, dated 2020)
Entries after “also recorded” stand apart in the source; their conditions may differ. Structures can show the parent of a compound that is named as a salt.

Tested on: blood drawn from mice
Test: Blood coagulation assay (presence or absence of blood clots, observed with CCD camera)
Experimental: Rats or mice (2-3 months old) were sacrificed using CO2 and their blood was extracted directly from the heart using 1 ml syringe and a 23-gauge needle. Blood was transferred to two groups of experimental tubes (400 microliters in each): empty tubes, and tubes containing citrate at a final concentration of 0.35% by weight (e.g., 50 μl of a respective 3.2% stock solution of trisodium citrate in water).
The anti-coagulant activity of the citrate powder was confirmed by recording absence of clot formation during the entire experiment, and thereafter, each of the following components was added to the tubes in both groups, at varying amounts:
=Coral skeleton particulates prepared from Porites lutea (to achieve a final concentration of 50-200 mg/ml)
=Coral skeleton particulates prepared from Stylophora subseriata (to achieve a final concentration of 50-200 mg/ml)
=Geological aragonite (to achieve a final concentration of 50-200 mg/ml)
=amorphous calcium carbonate (ACC) (1-200 mg, to achieve a final concentration of 2-50 mg/ml)
=Glass beads (0.1 mm diameter; to achieve a final concentration of 100 mg/ml)
Coagulation and anti-coagulation activity (presence and absence, respectively, of blood clots) was observed using a CCD camera.

Structure (SMILES) | effect of citrate by itself on clotting (blood drawn from mice, 0.35% by weight of citrate, no calcium carbonate) | coagulation time of citrate-containing blood (final concentration 50 mg/ml, citrate-containing blood, data not shown)
O=C(O)CC(O)(CC(=O)O)C(=O)O [citrate, Trisodium citrate] | blocked clotting; also recorded: anti-coagulation effect | –
O=C([O-])[O-].[K+].[K+] [potassium carbonate] | – | 40 to 45 min
